This assay concerns human ovarian cancer cell line SK-OV-3. The assay is described as follows: Cell viability (CellTiter Glo) of SK-OV-3 in combination with cisplatin or carboplatin. It counts as cell-based. The settings on record: for viability at 0.001 µM / viability at 0.003 µM / viability at 0.01 µM / viability at 0.03 µM / viability at 0.1 µM / viability at 0.3 µM / viability at 1 µM / viability at 3 µM / viability at 10 µM / IC50: Homo sapiens; for viability at 0.001 µM / viability at 0.003 µM / viability at 0.01 µM / viability at 0.03 µM / viability at 0.1 µM / viability at 0.3 µM / viability at 1 µM / viability at 3 µM / viability at 10 µM: SK-OV-3, 72 h, 3 days; for viability at 0.001 µM: test substance 1 nM; for viability at 0.003 µM: test substance 3 nM; for viability at 0.01 µM: test substance 10 nM; for viability at 0.03 µM: test substance 30 nM; for viability at 0.1 µM: test substance 100 nM; for viability at 0.3 µM: test substance 300 nM; for viability at 1 µM: test substance 1000 nM; for viability at 3 µM: test substance 3000 nM; for viability at 10 µM: test substance 10000 nM; for IC50: SK-OV-3, SK-OV-3; for CI: SK-OV-3 Cell. The source says: On the combinational effect of the embodiment of the invention, the results of evaluation using a combination index (CI) which is a quantitative index of the combinational effect are shown. The CI can be calculated by the following equation according to Cancer Research, 2010, Vol. 70, pp. 440 to 446.
That is, in a case where the drugs to be used in combination are drug 1 and drug 2, the CI at a certain drug concentration is
CI={(cell viability in case of using drug 1 and drug 2 in combination)/100}/{[(cell viability in case of using drug 1)/100]×[(cell viability in case of using drug 2)/100]}
Evaluation of antitumor activity against human ovarian cancer cell lines ES-2 and SK-OV-3 in combination with cisplatin and carboplatin
Furthermore, the antitumor activity against human ovarian cancer-derived cell lines ES-2 and SK-OV-3 in combination with cisplatin and carboplatin was evaluated in the same manner as in Test Example 1.
Gemcitabine, cisplatin, carboplatin, and methanesulfonate of Compound A were used as test substances.
Gemcitabine hydrochloride (manufactured by Plantex Co., Ltd.) dissolved in DMSO was used as gemcitabine. Cisplatin (Cat. #039-20091, manufactured by Wako Pure Chemical Industries, Ltd.) and carboplatin (Cat. #C2043, manufactured by Tokyo Chemical Industry Co., Ltd.), each of which dissolved in McCoy's 5a medium (Cat. #16600-082, manufactured by Thermo Fisher Scientific Inc.) supplemented with 1% serum (Cat. #10437-028, manufactured by Thermo Fisher Scientific Inc.), were used as cisplatin and carboplatin, respectively.
Human ovarian cancer cell line ES-2 and SK-OV-3 cells were subcultured in 10% serum-supplemented medium. During this test, all cell cultures were carried out in a CO2 incubator (set to 37° C. and 5% CO2, saturated with water vapor). ES-2 cells were diluted with 10% serum-supplemented medium to a cell density of 10000 cells/well/100 μL and SK-OV-3 cells were diluted with 10% serum-supplemented medium to a cell density of 15000 cells/well/100 μL, and then seeded on a 96-well plate. On the next day, the culture supernatant of each well was discarded, followed by washing twice with 150 μL of 1% serum-supplemented medium, and 100 μL of 1% serum-supplemented medium was added thereto, followed by culturing for 3 days.
The methanesulfonate of Compound A and gemcitabine were dissolved in DMSO to prepare 100 mmol/L DMSO solutions thereof. The thus-prepared DMSO solutions were diluted sequentially with DMSO to prepare DMSO solutions having a final treatment concentration of 1000-fold dilution. […] […] Compound A and gemcitabine were used with a maximum concentration of 10 μmol/L at a common ratio of 1/3 and 9 concentrations in combination with cisplatin or Carboplatin.
20 μL of Compound A or gemcitabine diluted with the cisplatin solution (60 μmol/L) or the Carboplatin solution (600 μmol/L) was added to each well. In addition, a group in which only a solvent containing no drug was added to wells in which cells were seeded (positive control), and a group in which only a solvent containing no drug was added to wells containing only a medium (negative control) were provided. All groups were set to n=3 well.
The cells were cultured for 3 days after the addition of the drug, and the cell viability was evaluated using a CellTiter Glo (registered trademark) Reagent (Cat. #G7570, manufactured by Promega Corporation) with the intracellular ATP level as an index. The concentration that inhibits cell viability by 50% (IC50 value) was calculated using XLFit software Ver.3 (registered trademark, manufactured by CTC Laboratory Systems Corporation).
The cell viability of each well was determined with the luminescence signal level of the negative control being 0% cell viability and the luminescence signal level of the positive control being 100% cell viability. The average value and standard deviation of the cell viability of each treatment group were calculated to prepare Tables 3 to 6.

The mark [1] stands for this setting: SK-OV-3, with carboplatin 30 μmol/L.
The mark [2] stands for this setting: SK-OV-3, with cisplatin 10 μmol/L.
Setting [3] is: used in combination with cisplatin (10 μmol/L, Table 4).

As for `Nc1ccn([C@@H]2O[C@H](CO)[C@@H](O)C2(F)F)c(=O)n1` [Gemcitabine], under setting [1], the viability at 0.001 µM was 90%, the viability at 0.003 µM was 90%, the viability at 0.01 µM is 88% and the viability at 0.03 µM stood at 86%. Also, under setting [1], the viability at 0.1 µM turned out to be 83%, the viability at 0.3 µM stood at 82%, the viability at 1 µM stood at 81% and the viability at 3 µM is 80%. In addition, the viability at 10 µM under setting [1] was found to be 76%. Further, under setting [2], the viability at 0.001 µM was 82%, the viability at 0.003 µM was 84%, the viability at 0.01 µM was 84% and the viability at 0.03 µM stood at 83%. Under setting [2], the viability at 0.1 µM was 83%, the viability at 0.3 µM amounted to 83%, the viability at 1 µM amounted to 79% and the viability at 3 µM was 59%. Also, the viability at 10 µM under setting [2] was determined as 30%. For the same molecule, the IC50 under setting [3] is 3800 nM. In addition, the IC50 value result (SK-OV-3, used in combination with carboplatin (30 μmol/L, Table 5)) was “could not be calculated”. Also, for the setting “combination with Carboplatin”, the CI is 1.0. Besides, the CI (combination with Cisplatin) is recorded as 1.1.
For the molecule `Nc1ccn([C@@H]2S[C@H](CO)[C@@H](O)[C@@H]2F)c(=O)n1` [Compound A, 1-(2-deoxy-2-fluoro-4-thio-β-D-arabinofuranosyl)cytosine], under setting [1], the viability at 0.001 µM was 90%, the viability at 0.003 µM stood at 88%, the viability at 0.01 µM was found to be 84% and the viability at 0.03 µM was 82%. Under setting [1], the viability at 0.1 µM is 80%, the viability at 0.3 µM is 73%, the viability at 1 µM turned out to be 41% and the viability at 3 µM came out at 20%. Also, the viability at 10 µM under setting [1] is 17%. Further, under setting [2], the viability at 0.001 µM came out at 83%, the viability at 0.003 µM came out at 82%, the viability at 0.01 µM was 81% and the viability at 0.03 µM was found to be 76%. For the same molecule, under setting [2], the viability at 0.1 µM was determined as 43%, the viability at 0.3 µM worked out at 14%, the viability at 1 µM is 11% and the viability at 3 µM is 10%. For the same molecule, the viability at 10 µM under setting [2] is 10%. Also, the IC50 (used in combination with carboplatin (30 μmol/L, Table 5)) was 676 nM. The IC50 under setting [3] amounted to 82.2 nM. In addition, where the note is “combination with Carboplatin”, the CI is 0.3. The CI (combination with Cisplatin) came out at 0.2.

By viability is commonly meant a per cent measure of how many cells are alive, often set against a control. As a reminder, the IC50 is the concentration at which inhibition is half-maximal.

Source of the values: US20200405752A1, “ANTITUMOR AGENT, ANTITUMOR EFFECT ENHANCER, AND ANTITUMOR KIT” (FUJIFILM Corporation, priority 2018, published 2020).
